Where two headings read alike, the source gives them in different places.
How the values were obtained:
[1] = tested on: S. mansoni adult worms; details: cited from earlier work
[2] = tested on: S. mansoni adult worms; assay: Antischistosomal assay: viability of ex vivo adult worm pairs; type: cell-based
Procedure: The life cycle of S. mansoni (BH strain) is maintained by routine passage through Biomphalaria glabrata snails and Swiss mice at Guarulhos University (UNG, Guarulhos, SP, Brazil). Rodents, three weeks-old, were purchased from Animais de Laboratório Criação e Comércio (Paulínea, SP, Brazil). Both mice and snails were kept under environmentally controlled conditions (25 °C; humidity of 50%), with free access to food and water. Cercariae of S. mansoni were obtained from infected intermediate host snails in our laboratories as described previously[63],[64].
(§1) The antischistosomal assay was performed as previously described[65],[66]. Briefly, S. mansoni adult parasites were obtained from infected mice at day 42 post-infection (parasite ex vivo). One adult male and one adult female worms (i.e. one worm pairs) were incubated in flat bottom 24-well plates (Corning, New York, NY, USA) in the presence of threo-austrobailignan-6 and verrucosin (started at 50 µM and followed a twofold dilution series) in RPMI 1640 culture medium supplemented with 5% inactivated fetal calf serum and containing antibiotics (100 U/mL penicillin and 100 μg/mL streptomycin). The control schistosomes were assayed in a culture medium and 0.5% DMSO (representing the highest concentration of solvent). Each concentration (50, 25, 12.5, 6.25, 3.12 µM) was tested in five replicates, and the experiments were repeated three times. Parasites were kept for 72 h (37 °C, 5% CO2), and their viability was monitored microscopically at 2, 24, 48, and 72 h using both a Motic AE2000 inverted microscope (Vancouver, Canada) and a Leica EZ4E stereomicroscope (Wetzlar, Germany). The death of adult schistosomes was defined as no movement observed for at least 1 to 2 min of examination, whereas parasites with any body movement were considered viable. The percentage of viable adult schistosomes was calculated considering worms exposed to compounds vs control worms. For assessment of the reproductive fitness of S. mansoni, the number of eggs was counted daily using an inverted microscope (Motic) as previously described.
(§2) Statistical analyses were performed using Graph Pad Prism software 8.0 (San Diego, CA, USA). Data are presented as the mean ± standard deviation (SD) of at least three independent experiments, EC50 and, CC50 values were calculated using sigmoid dose–response curves. For S. mansoni egg production, significant differences were determined by one-way analysis of variance (ANOVA) and applying Tukey's test for multiple comparisons with a level of significance set at P < 0.05.

[3] = Cytotoxicity MTT assay, HaCaT cells; type: cell-based, human; details: human, HaCaT cells (human epithelial cells); HaCaT cells, MTT, 72 h
Procedure: (§3) HaCaT (human epithelial cells) and Vero (monkey kidney cells) were obtained from the Banco de Células do Rio de Janeiro (BCRJ, RJ, Brazil) and the American Type Culture Collection (ATCC CCL-81; Manassas, VA, USA), respectively. Cells were cultured in DMEM medium supplemented with 10% heat-inactivated fetal bovine serum and antibiotics (100 U/mL penicillin and 100 μg/mL streptomycin) at 37 °C in a humidified atmosphere containing 5% CO2. They were maintained in 25 cm^2 culture flasks (Corning, Tewksbury, MA, USA) and harvested using 0.25% trypsin in 0.2 g/L EDTA solution.
(§4) The MTT assay was used to evaluate the cytotoxic activity as previously described[71],[72]. Briefly, cells were seeded (2 × 10^3/well in 96-well culture plates) and incubated with threo-austrobailignan-6 and verrucosin (started at 500 µM and followed a threefold dilution series) for 72 h at 37 °C and 5% CO2. MTT solution was added to each well and the absorbance was read on an Epoch Microplate Spectrophotometer (BioTek Instruments, Winooski, VT, USA) at 595 nm. The selectivity indices (SI) were calculated by dividing the 50% cytotoxic concentration (CC50) obtained on cells with 50% effective concentration (EC50) values determined on schistosomes.
as §2

[4] = tested on: S. mansoni infections; set-up: method as in PMID 25412105, PMID 28126024; details: systematic reviews and meta-analyses; cited from earlier work
[5] = Cytotoxicity MTT assay, Vero cells; type: cell-based, African green monkey; details: African green monkey, Vero cells (monkey kidney cells); Vero cells, MTT, 72 h
Procedure: as §3, §4, §2

[6] = tested on: Vero (monkey kidney cells); assay: Cytotoxicity MTT assay, Vero cells; type: cell-based, African green monkey; details: CC50 Vero / EC50 S. mansoni
Procedure: as §3, §4, §2

[7] = tested on: HaCaT (human epithelial cells); assay: Cytotoxicity MTT assay, HaCaT cells; type: cell-based; details: CC50 HaCaT / EC50 S. mansoni
Procedure: as §3, §4, §2

[8] = tested on: S. mansoni adult worm pairs; assay: Egg production (reproductive fitness) of paired adult worms; type: cell-based, Schistosoma mansoni; details: for total number of eggs vs control worms / oviposition: within 72 h
Procedure: as §1, §2

[9] = Schistosoma mansoni, 72 h, adult worms, male and female, 72 h, read-out: EC50 (schistosomicidal activity)
[10] = Schistosoma mansoni, 72 h, ex vivo adult female worms, 72 h exposure, brackets = 95% confidence interval, read-out: S. mansoni EC50 Female
[11] = Schistosoma mansoni, 72 h, ex vivo adult male worms, 72 h exposure, brackets = 95% confidence interval, read-out: S. mansoni EC50 Male

Molecule: 2-oxopopulifolic acid methyl ester
- in vitro effective concentration [1]: 50 µM

Molecule: C=CC(C)(O)CCC=C(C)CCC=C(C)C (mixture of isomers) [nerolidol]
- in vitro effective concentration [1]: 85 µM

Molecule: CC1=CC(=O)CC2[C@]1(C)CC[C@@H](C)[C@]2(C)CCC(C)CC(=O)O (stereo partly drawn) [2-oxopopulifolic acid]
- in vitro effective concentration [1]: 50 µM

Molecule: CC(C)CCCC(C)CCO (stereo not drawn) [3,7-dimethylloctanol]
- in vitro effective concentration [1]: 52 µM

Molecule: O=C(C1CCCCC1)N1CC(=O)N2CCc3ccccc3C2C1 (stereo not drawn) [Praziquantel, praziquantel, reference compound]
- EC50 [2, 9]: < 0.93 µM
- EC50 [2, 10]: 0.8 µM
- EC50 [2, 11]: 0.7 µM
- mortality of adult worm pairs ([2]; praziquantel at 2 µM, monitored up to 72 h): mortality of all worms immediately
- CC50 at 72 h [3]: > 500 µM
- cure rate [4]: approximately 75%
- CC50 at 72 h [5]: > 500 µM
- Monkey cells SI (Selectivity Index) [6]: > 714

Molecule: COc1cc(C[C@@H](C)[C@H](C)Cc2ccc3c(c2)OCO3)ccc1O [Threo-austrobailignan-6, threo-austrobailignan-6]
- EC50 [2, 9]: < 30 µM
- EC50 [2, 10]: 28.1 µM
- EC50 [2, 11]: 22.9 µM
- mortality at 25 µM ([2]; Schistosoma mansoni, 72 h, read-out: mortality of male worms): 100%
- Human cells SI (Selectivity Index) [7]: > 17.8
- CC50 at 72 h [3]: > 500 µM
- pairing of male and female parasites ([8]; 25 μM): remained coupled
- total number of eggs vs control worms ([8]; 25 μM): significantly reduced
- pairing of male and female parasites ([8]; 50 μM): separated
- oviposition ([8]; 50 μM): complete lack of oviposition
- CC50 at 72 h [5]: > 500 µM
- Monkey cells SI (Selectivity Index) [6]: > 17.8

Molecule: COc1cc([C@H]2O[C@@H](c3ccc(O)c(OC)c3)[C@@H](C)[C@@H]2C)ccc1O [Verrucosin, verrucosin]
- time to death of all female worms ([2]; 25 μM): ≤ 72 h
- mortality at 25 µM ([2]; Schistosoma mansoni, 48 h, read-out: mortality of male parasites): 100%
- EC50 [2, 10]: 18.7 µM
- EC50 [2, 11]: 12.6 µM
- EC50 ([2]; adult worms, male and female, 72 h, read-out: EC50 (schistosomicidal activity)): < 30 µM
- Human cells SI (Selectivity Index) [7]: > 26.8
- CC50 at 72 h [3]: > 500 µM
- oviposition ([8]; 12.5 μM, P < 0.01): significant reduction
- pairing of male and female parasites ([8]; 25 μM): remained coupled
- total number of eggs vs control worms ([8]; 25 μM): significantly reduced
- pairing of male and female parasites ([8]; 50 μM): separated
- oviposition ([8]; 50 μM): complete lack of oviposition
- CC50 at 72 h [5]: > 500 µM
- Monkey cells SI (Selectivity Index) [6]: > 26.8

Molecule: COc1cc(O)cc(O)c1C(=O)/C=C/c1ccccc1 [cardamonin]
- in vitro effective concentration [1]: 25 µM

Molecule: Cc1ccc(C(C)C)cc1O [carvacrol]
- in vitro effective concentration [1]: 56.8 µM

Molecule: CC(=O)Oc1cc(C(C)C)ccc1C [carvacryl acetate]
- in vitro effective concentration [1]: 42.16 µM

Molecule: C=C1C(=O)O[C@@H]2/C=C(\CO)CC/C=C(\C)C[C@H](OC(=O)C(=C)[C@@H](O)CO)[C@@H]12 [cnicin]
- in vitro effective concentration [1]: 50 µM

Molecule: C=C1C[C@@]23CC[C@H]4[C@@](C)(CCC[C@@]4(C)C(=O)O)[C@@H]2CC[C@@H]1C3 [ent-kaur-16-en-19-oic acid]
- in vitro effective concentration [1]: 26.1 µM

Molecule: C/C=C/c1cc(OC)c2c(c1)[C@H](C)[C@@H](c1ccc(O)c(OC)c1)O2 [licarin A]
- in vitro effective concentration [1]: 30 µM

Molecule: C=CC(C)(C)c1cc(/C=C/C(=O)c2ccc(O)cc2)c(OC)cc1O [licochalcone A]
- in vitro effective concentration [1]: 50 µM
